Data as given in ChEMBL document CHEMBL4732113, “Exploiting the tolerant region I of the non-nucleoside reverse transcriptase inhibitor (NNRTI) binding pocket. Part 2: Discovery of diarylpyrimidine derivatives as potent HIV-1 NNRTIs with high Fsp values and favorable drug-like properties” (Eur J Med Chem, 2021).

Key:
[1] = test system: Human immunodeficiency virus 1; test: Antiviral activity against HIV1 3B infected in human MT4 cells assessed as reduction in virus-induced cytopathic effect by MTT assay; type: functional, organism-based; conditions: Human immunodeficiency virus 1, 3B
[2] = test system: Human immunodeficiency virus 1; test: Antiviral activity against HIV1 RES056 harboring K103N/Y181C double mutant infected in human MT4 cells assessed as reduction in virus-induced cytopathic effect by MTT assay; type: functional, organism-based; conditions: Human immunodeficiency virus 1, RES056, MT4; read-out: EC50
[3] = Cytotoxicity against human MT4 cells assessed as reduction in cell viability by MTT assay; type: cell-based; conditions: MT4 cells
[4] = Selectivity index, ratio of CC50 for human MT4 cells to EC50 for antiviral activity against HIV 3B infected in human MT4 cells; type: toxicity, cell-based; conditions: read-out: Ratio CC50/EC50
[5] = Selectivity index, ratio of CC50 for human MT4 cells to EC50 for antiviral activity against HIV HIV1 RES056 harboring K103N/Y181C double mutant infected in human MT4 cells; type: toxicity, cell-based; conditions: read-out: Ratio CC50/EC50
[6] = target: Human immunodeficiency virus type 1 reverse transcriptase (Human immunodeficiency virus 1, UniProt Q72547); test: Inhibition of HIV1 reverse transcriptase assessed as reduction in biotin-dUTP incorporation into template incubated for 1 hr by ELISA
[7] = test system: Human immunodeficiency virus 1; test: Antiviral activity against HIV1 harboring Y181C mutant infected in human MT4 cells assessed as reduction in virus-induced cytopathic effect by MTT assay; type: functional, organism-based; conditions: Human immunodeficiency virus 1, MT4
[8] = test system: Human immunodeficiency virus 1; test: Antiviral activity against HIV1 harboring Y188L mutant infected in human MT4 cells assessed as reduction in virus-induced cytopathic effect by MTT assay; type: functional, organism-based; conditions: Human immunodeficiency virus 1, MT4
[9] = test system: Human immunodeficiency virus 1; test: Antiviral activity against HIV1 harboring L100I mutant infected in human MT4 cells assessed as reduction in virus-induced cytopathic effect by MTT assay; type: functional, organism-based; conditions: Human immunodeficiency virus 1, MT4
[10] = test system: Human immunodeficiency virus 1; test: Antiviral activity against HIV1 harboring E138K mutant infected in human MT4 cells assessed as reduction in virus-induced cytopathic effect by MTT assay; type: functional, organism-based; conditions: Human immunodeficiency virus 1, MT4
[11] = test system: Human immunodeficiency virus 1; test: Antiviral activity against HIV1 harboring K103N mutant infected in human MT4 cells assessed as reduction in virus-induced cytopathic effect by MTT assay; type: functional, organism-based; conditions: Human immunodeficiency virus 1, MT4
[12] = test system: Human immunodeficiency virus 1; test: Antiviral activity against HIV1 harboring F227L/V106A mutant infected in human MT4 cells assessed as reduction in virus-induced cytopathic effect by MTT assay; type: functional, organism-based; conditions: Human immunodeficiency virus 1, MT4

Compound | EC50 ([1]; read-out: EC50) | EC50 [2] | CC50 [3] | selectivity ratio [4] | selectivity ratio [5] | EC50 ([1]; read-out: pEC50 (converted)) | IC50 [6] | EC50 [7] | EC50 [8] | EC50 [9] | EC50 [10] | EC50 [11] | EC50 [12]
Cc1cc(/C=C/C#N)cc(C)c1Oc1ccnc(Nc2ccc(CN3CCCN(S(C)(=O)=O)CC3)cc2)n1 | 27 nM | > 17400 nM | 17400 nM | 644 | < 1 | – | – | – | – | – | – | – | –
Cc1cc(C#N)cc(C)c1Oc1ccnc(Nc2ccc(CN3CCS(=O)(=O)CC3)cc2)n1 | 14 nM | > 53200 nM | 53200 nM | 3850 | < 1 | 14.1 nM | 78 nM | – | – | – | – | – | –
O=C1Nc2ccc(Cl)cc2[C@@](C#CC2CC2)(C(F)(F)F)O1 [EFAVIRENZ] | 2.8 nM | 340 nM | > 6340 nM | – | – | 2.82 nM | – | 5 nM | 260 nM | – | – | – | –
Cc1cc(/C=C/C#N)cc(C)c1Oc1ccnc(Nc2ccc(CN3CCN(S(=O)(=O)N(C)C)CC3)cc2)n1 | 4.5 nM | > 3070 nM | 3070 nM | 677 | < 1 | – | – | 92 nM | > 3070 nM | 29 nM | 34 nM | 11 nM | > 3070 nM
Cc1cc(C#N)cc(C)c1Oc1ccnc(Nc2ccc(CN3CCSCC3)cc2)n1 | 28 nM | > 24000 nM | 24000 nM | 847 | < 1 | – | – | – | – | – | – | – | –
Cc1cc(/C=C/C#N)cc(C)c1Oc1ccnc(Nc2ccc(CN3CCCN(S(=O)(=O)C(C)C)CC3)cc2)n1 | 19 nM | > 4640 nM | 4640 nM | 244 | < 1 | – | – | – | – | – | – | – | –
Cc1cc(C#N)cc(C)c1Oc1ccnc(Nc2ccc(CN3CCN(S(=O)(=O)C4CC4)CC3)cc2)n1 | 25 nM | > 4430 nM | 4430 nM | 174 | < 1 | – | – | – | – | – | – | – | –
Cc1cc(C#N)cc(C)c1Oc1ccnc(Nc2ccc(CN3CC[S+]([O-])CC3)cc2)n1 | 17 nM | > 54700 nM | 54700 nM | 3250 | < 1 | – | – | – | – | – | – | – | –
Cc1cc(/C=C/C#N)cc(C)c1Oc1ccnc(Nc2ccc(CN3CCN(S(=O)(=O)C4CC4)CC3)cc2)n1 | 6.1 nM | > 4350 nM | 4350 nM | 717 | < 1 | – | – | 64 nM | > 4350 nM | 17 nM | 31 nM | 6.8 nM | 360 nM
C=CC(=O)N1CCN(Cc2ccc(Nc3nccc(Oc4c(C)cc(C#N)cc4C)n3)cc2)CC1 | 56 nM | > 7580 nM | 7580 nM | 134 | < 1 | 56.2 nM | 160 nM | – | – | – | – | – | –
Cc1cc(C#N)cc(C)c1Oc1ccnc(Nc2ccc(CN3CCN(S(=O)(=O)N(C)C)CC3)cc2)n1 | 48 nM | > 4460 nM | 4460 nM | 93 | < 1 | – | – | – | – | – | – | – | –
Cc1cc(C#N)cc(C)c1Oc1ccnc(Nc2ccc(CN3CCN(S(=O)(=O)C(C)C)CC3)cc2)n1 | 30 nM | > 4540 nM | 4540 nM | 152 | < 1 | 30.2 nM | 73 nM | – | – | – | – | – | –
Cc1cc(/C=C/C#N)cc(C)c1Oc1ccnc(Nc2ccc(CN3CCSCC3)cc2)n1 | 4.7 nM | 3560 nM | 14900 nM | 3160 | 4 | 4.68 nM | 62 nM | 99 nM | 4280 nM | 24 nM | 25 nM | 4.4 nM | 280 nM
Cc1cn([C@H]2C[C@H](N=[N+]=[N-])[C@@H](CO)O2)c(=O)[nH]c1=O [ZIDOVUDINE] | 26 nM | 28 nM | > 7480 nM | > 293 | > 267 | – | – | 13 nM | 8.6 nM | 7.1 nM | 36 nM | 19 nM | 8.7 nM
Cc1cc(C#N)cc(C)c1Oc1ccnc(Nc2ccc(CN3CCCN(S(=O)(=O)N(C)C)CC3)cc2)n1 | 160 nM | > 4190 nM | 4190 nM | 26 | < 1 | – | – | – | – | – | – | – | –
Cc1cc(C#N)cc(C)c1Oc1ccnc(Nc2ccc(CN3CCCN(S(C)(=O)=O)CC3)cc2)n1 | 79 nM | > 7850 nM | 7850 nM | 100 | < 1 | – | – | – | – | – | – | – | –
Cc1cc(/C=C/C#N)cc(C)c1Oc1ccnc(Nc2ccc(CN3CCN(S(=O)(=O)C(C)C)CC3)cc2)n1 | 5.6 nM | > 3810 nM | 3810 nM | 685 | < 1 | – | – | 69 nM | > 3810 nM | 25 nM | 36 nM | 8.5 nM | 230 nM
Cc1ccnc2c1NC(=O)c1cccnc1N2C1CC1 [NEVIRAPINE] | 150 nM | > 15000 nM | > 15000 nM | – | – | – | – | 5050 nM | 9070 nM | 620 nM | 170 nM | – | 8040 nM
Cc1cc(/C=C/C#N)cc(C)c1Oc1ccnc(Nc2ccc(CN3CCCN(S(=O)(=O)N(C)C)CC3)cc2)n1 | 21 nM | > 3900 nM | 3900 nM | 182 | < 1 | 20.9 nM | 94 nM | – | – | – | – | – | –
Cc1cc(C#N)cc(C)c1Oc1nc(Nc2ccc(C#N)cc2)nc(N)c1Br [ETRAVIRINE] | 4.2 nM | 61 nM | > 4590 nM | – | – | 4.17 nM | – | 15 nM | 19 nM | 8.3 nM | 9.8 nM | – | 26 nM
Nc1ccn([C@@H]2CS[C@H](CO)O2)c(=O)n1 [LAMIVUDINE] | 6000 nM | 6830 nM | > 87200 nM | > 15 | > 13 | – | – | 3200 nM | 2710 nM | 1460 nM | 6110 nM | 2740 nM | 2360 nM
CCS(=O)(=O)N1CCN(Cc2ccc(Nc3nccc(Oc4c(C)cc(C#N)cc4C)n3)cc2)CC1 | 17 nM | > 5240 nM | 5240 nM | 310 | < 1 | – | – | – | – | – | – | – | –
